Where a chain is given by its changes, count along the chain named. “Also recorded” adds a separate entry of the source.
Experiments:
Y289L GalT = target: T1, Y289L GalT (Bos taurus, UniProt P08037, Y289L); assay: Transfer of keto-sugar from labeling agent 1 to O-GlcNAc peptide by Y289L mutant GalT, LC-MS; assay type: biochemical; settings: peptide TAPTS(O-GlcNAc)TIAPG, 6 h at 4° C., diammonium salt
T1 construct: made in house
T1 sequence (P08037 1-402 Y289L): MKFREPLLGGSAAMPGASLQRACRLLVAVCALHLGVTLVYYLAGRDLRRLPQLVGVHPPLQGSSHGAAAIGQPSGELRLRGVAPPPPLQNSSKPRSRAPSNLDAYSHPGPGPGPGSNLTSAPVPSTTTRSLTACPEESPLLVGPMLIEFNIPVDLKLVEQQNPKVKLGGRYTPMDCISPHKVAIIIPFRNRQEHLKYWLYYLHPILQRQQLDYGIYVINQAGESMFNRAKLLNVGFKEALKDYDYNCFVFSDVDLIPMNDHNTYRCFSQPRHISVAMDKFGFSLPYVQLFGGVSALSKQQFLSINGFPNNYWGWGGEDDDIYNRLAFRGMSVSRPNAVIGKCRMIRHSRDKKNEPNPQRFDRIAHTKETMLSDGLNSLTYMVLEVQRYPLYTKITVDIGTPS
Description: The peptide TAPTS(O-GlcNAc)TIAPG (SEQ ID NO: 1) (10 μM) was dissolved in 25 mM MOPS buffer, pH 6.7 containing 5 mM MnCl2 and 8 μM reference peptide (ThermoFinnigan, San Jose, Calif.). Labeling agent 1 and mutant Y289L GalT were added to final concentrations of 1 mM and 100 ng/μL, respectively. Prior to enzyme addition, an aliquot of the—reaction was removed as an initial time point for LC-MS analysis. Reactions were incubated at 4° C. for 6 h, after which an aliquot of the reaction mixture was removed for product analysis by LC-MS. The remainder of the reaction was diluted 5-fold into PBS (final concentration: 10.1 mM Na2HPO4, 1.76 mM KH2HPO4, […], 2.7 mM KCl, pH 6.7), and N-(aminooxyacetyl)-N′-(D-biotinoyl) hydrazine (Molecular Probes, Eugene, Oreg.) was added to a final concentration of 12 mM. After 8 h at 25° C., the extent of biotin-oxime product was measured by LC-MS. […] Labeling reactions with wild-type GalT were performed identically, with the exception that reactions were incubated at 37° C. for 12 h. […]
Base peak chromatograms are shown before and 6 h after the addition of ketone analogue 1 and Y289L GalT. […] For reaction with detection agent aminooxy biotin, formation of the oxime product was monitored using an extracted ion chromatogram within the mass range 1319.0-1321.0 m/z and 1633.0-1635.5 m/z, which was generated post-acquisition via the Xcalibur™ software. […]

GalT = target: T2, GalT (Bos taurus, UniProt P08037); settings: relative to Gal; cited from earlier work
T2 sequence (P08037 1-402): T1 sequence (P08037 1-402 Y289L) with L289Y

[1] = test system: O-GlcNAc pendant moiety on α-crystallin; assay: Western / lectin blotting of α-crystallin with existing O-GlcNAc detection reagents; assay type: binding, bovine; settings: blot, chemiluminescence, even when 10 μg of α-crystallin was used
Description: α-Crystallin, and appropriate positive and negative controls were resolved by 15% SDS-PAGE. All Western blotting steps were performed at RT unless otherwise noted. […] RL-2 antibody, at a concentration of 1:2000, was subsequently added in blocking buffer and blots were incubated for 1.5-2 h. Blots were then rinsed with hsTBST and washed 6×5 min. Secondary goat anti-mouse IgG antibody was applied at a concentration of 1:10,000 in hsTBS-T containing 1% BSA. After 1 h, blots were rinsed and washed as described before chemiluminescence detection on film (FIG. 11A). Western blotting with the CTD110.6 antibody was performed according to manufacturer's recommendations. Briefly, α-crystallin and controls were transferred to PVDF and washed 2×15 min with TBS-0.1% tween-20 (TBST). Blots were blocked in TBST containing 3% BSA for 1 h, rinsed 2× with TBST, and probed with CTD110.6 (1:2500) in blocking buffer for 1 h. Blots were then rinsed 2× with TBST and washed 2×5 min. Secondary goat anti-mouse IgM antibody was applied at a concentration of 1:10,000 in blocking buffer for 1 h, and blots were subsequently rinsed with TBST and washed 5×5 min before chemiluminescence detection on film (FIG. 11B).
WGA western blotting was performed essentially as described (25, 27). Briefly, α-crystallin and controls were resolved by 15% SDS-PAGE and electrophoretically transferred to nitrocellulose. […]

## Uridine 5′-diphospho-2-acetonyl-2deoxy-a-D-galactopyranose diammonium salt [Labeling agent 1]
Y289L GalT
  conversion of peptide to ketone-labeled product: Complete conversion

## OCC1OC(O)CC(O)[C@H]1O (stereo partly drawn) [2-deoxy-Gal]
GalT
  rate of transfer by GalT: rates comparable to Gal

B1: WGA: wheat-germ agglutinin lectin, existing method to detect GlcNAc (protein)
chain: QRCGEQGSNMECPNNLCCSQYGYCGMGGDYCGKGCQNGACWTSKRCGSQAGGATCTNNQCCSQYGYCGFGAEYCGAGCQGGPCRADIKCGSQAGGKLCPNNLCCSQWGFCGLGSEFCGGGCQSGACSTDKPCGKDAGGRVCTNNYCCSKWGSCGIGPGYCGAGCQSGGCDG
[1]
  detection of O-GlcNAc on α-crystallin: failed to detect; also recorded: could not detect

Source: patent publication US8927300B2, “Method and compositions for the detection of protein glycosylation” (California Institute of Technology, priority 2003, dated 2015)
